This is an account of results in US20130053430A1, “MODULATION OF CETP EXPRESSION” (Isis Pharmaceuticals, Inc., priority 2010, published 2013).

Series [1] can be described thus: Effect on HDL composition in huCETP transgenic LDL receptor knockout mice (Example 10). The class given is in vivo. The following applies: HDL fraction; for FC % (free cholesterol component of HDL) / PL % (phospholipid component of HDL) / Pro % (protein component of HDL) / TG % (triglyceride component of HDL) / CE % (cholesteryl ester component of HDL): CETP transgenic LDLr−/− mouse model; for CE % (cholesteryl ester component of HDL): calculated as (total cholesterol−free cholesterol)×1.67; for S/C Ratio: surface components (Pro, FC, PL) to core components (CE, TG). An excerpt:
In human CETP transgenic mice, the bulk of the cholesterol in plasma is associated with HDL and, in this model, cholesteryl ester (CE) transferred from HDL to VLDL/LDL by CETP is rapidly cleared by the LDL receptor (LDLr) (Zhou, H. et al., Biochim Biophys. Acta. 1761: 14821488, 2006). The human CETP transgenic, LDLr knockout mouse model used in this example is an animal model for cardiovascular disease. In this model, clearance of LDL is delayed due to the absence of LDLr leading to the inability of the mice to clear CE via the LDL pathway (Plump, A. S. et al., Arterioscler. Thromb. Vasc. Biol. 19: 1105-1110, 1999). This human CETP transgenic, LDLr knockout mouse is helpful in assessing the effect of antisense inhibition of CETP on HDL composition as the model has a proatherogenic lipoprotein profile where most of the cholesterol is found in VLDL and LDL.
Male transgenic mice were maintained on a 12-hour light/dark cycle and were fed ad libitum the Western diet (TD88137; 42% cal from fat, 0.2% cholesterol; Harlan Laboratories, Indianapolis, Ind.). Animals were acclimated for at least 7 days in the research facility before initiation of the experiment and were maintained on this diet throughout the study period. Antisense oligonucleotides (ASOs) were prepared in buffered saline (PBS) and sterilized by filtering through a 0.2 micron filter. Oligonucleotides were dissolved in 0.9% PBS for injection.
Another group received subcutaneous injections of control oligonucleotide ISIS 141923 at a dose of 15 mg/kg/week for 6 weeks. One group of mice received subcutaneous injections of PBS for 6 weeks. The PBS-injected group served as the control group to which treatment groups were compared.
At the end of the treatment period, plasma samples were taken for further analysis.
The VLDL+IDL, LDL and HDL lipoprotein sub-fractions were separated by ultracentrifugation, based on their relative densities. Pooled plasma samples from all the groups of […] each was added to a 2 mL Beckman Quick-Seal centrifuge tube and the density adjusted to 1.019 g/mL with potassium bromide (KBr). The samples were then spun in a Beckman TL-100 ultracentrifuge for 4 hours at 100,000 rpm at 4 degrees Celsius. The top of the tube containing the VLDL+IDL sub-fraction was sliced off and collected.
The bottom fraction was collected in a new tube; the density was re-adjusted to 1.063 g/ml with KBr and re-spun at 100,000 rpm at 4 degrees Celsius for 5 hours to concentrate the LDL sub-fraction. The top of the tube containing the LDL sub-fraction was collected. Once again, the bottom fraction was placed in a new tube and the density was now adjusted to 1.21 g/ml with KBr to concentrate the HDL sub-fraction. The tubes were spun at 100,000 rpm at 4 degrees Celsius for 6 hours. The HDL sub-fraction was finally collected. All of the lipoprotein sub-fractions were dialyzed overnight in PBS to remove excess KBr.
The sub-fractions were then assayed for total cholesterol and triglyceride (TG) using enzymatic assays from Roche (Basel, Switzerland). Phospholipid (PL) and free cholesterol (FC) were measured using enzymatic assays from Wako Chemicals USA (Richmond, Va.). Protein (Pro) concentration was measured by Fisher Scientific's BCA assay (Pittsburgh, Pa.). Cholesteryl ester (CE) was calculated as (total cholesterol−free cholesterol)×1.67 (CE is cholesterol plus a fatty acid, the 1.67 adjustment takes into account the increase in mass the fatty acid will add (Rudel L L et al, JCI 100 (1); 74-83)). The S/C ratio is the ratio of the surface components (Pro, FC, and PL) to the core components (CE and TG).
Additionally, the S/C ratio is increased, indicating a shift to a smaller HDL particle, after antisense oligonucleotide inhibition of CETP. Accordingly, in this model, inhibiting the CETP-mediated transfer of TG to HDL, and CE from HDL, leads to the formation of smaller, denser, and CE rich HDL.

The nature of series [2]: Plasma cholesterol and triglyceride levels (Example 6). To be noted: 50 mg/kg s.c. twice per week. The class given is in vivo, mice. An excerpt: The normal chow-fed mice were divided into three treatment groups. The cholesterol-enriched chow-fed mice were divided into three treatment groups. […] One chow-fed group and one cholesterol-enriched chow-fed group received subcutaneous injections of saline twice weekly for 6 weeks. The saline-injected groups served as the control groups to which the corresponding oligonucleotide-treated groups were compared.
Plasma cholesterol were extracted at weeks 3 and 6 by the method of Bligh and Dyer (Bligh, E. G. and Dyer, W. J. Can. J. Biochem. Physiol. 37: 911-917, 1959) and measured on weeks 0, 3 and 6 with an Olympus clinical analyzer (Hitachi Olympus AU400e, Melville, N.Y.). HDL, LDL and VLDL cholesterol were individually measured by HPLC. Triglyceride levels were measured on weeks 0, 3 and 6 with the use of a commercially available triglyceride kit (DCL Triglyceride Reagent; Diagnostic Chemicals Ltd.). VLDL levels were measured on week 6. The results are presented in Tables 22-26 and are expressed in mg/dL.

e = 2'-O-(2-methoxyethyl) (MOE); d = 2'-deoxy (DNA)

Regarding “ISIS 141923: CCTTCCCTGAAGGTTCCTCC, 5-10-5 MOE gapmer, a control oligonucleotide which has no known murine target (sugars from the 5' end e5 d10 e5, backbone and methylation of C not given here) [reference compound]”, in series [1], the “FC % (free cholesterol component of HDL)” value amounted to 3.1%, the “PL % (phospholipid component of HDL)” value is recorded as 8.4%, the “Pro % (protein component of HDL)” value is given as 24.8% and the “TG % (triglyceride component of HDL)” value is reported as 47.1%. In addition, in series [1], the “CE % (cholesteryl ester component of HDL)” value is 16.6% and the “S/C Ratio” value stood at 0.57.

On to “ISIS 349511: 5-10-5 MOE gapmer CCCGACCTCCTTGGAGACTT (sugars from the 5' end e5 d10 e5, backbone and methylation of C not given here)”, for which the HDL cholesterol levels in series [2] (Cholesterol chow, Week 0) is given as 51 mg/dL; in series [2] (Cholesterol chow, Week 3) it was 85 mg/dL; in series [2] (Cholesterol chow, Week 6), 136 mg/dL; in series [2] (Normal chow, Week 0) it was 51 mg/dL; in series [2] (Normal chow, Week 3), 56 mg/dL; in series [2] (Normal chow, Week 6) it was 98 mg/dL. The LDL cholesterol levels in series [2] (Cholesterol chow, Week 0) came to 179 mg/dL; in series [2] (Cholesterol chow, Week 3), 576 mg/dL; in series [2] (Cholesterol chow, Week 6), 558 mg/dL; in series [2] (Normal chow, Week 0), 176 mg/dL; in series [2] (Normal chow, Week 3), 148 mg/dL; in series [2] (Normal chow, Week 6), 178 mg/dL. The Total cholesterol levels was 252 mg/dL in series [2] (Cholesterol chow, Week 0); 714 mg/dL in series [2] (Cholesterol chow, Week 3); 809 mg/dL in series [2] (Cholesterol chow, Week 6); 254 mg/dL in series [2] (Normal chow, Week 0); 227 mg/dL in series [2] (Normal chow, Week 3); 327 mg/dL in series [2] (Normal chow, Week 6). The Triglyceride levels is reported as 101 mg/dL in series [2] (Cholesterol chow, Week 0); 94 mg/dL in series [2] (Cholesterol chow, Week 3); 99 mg/dL in series [2] (Cholesterol chow, Week 6); 80 mg/dL in series [2] (Normal chow, Week 0); 90 mg/dL in series [2] (Normal chow, Week 3); 101 mg/dL in series [2] (Normal chow, Week 6). The VLDL cholesterol levels was 115 mg/dL in series [2] (Cholesterol chow, Week 6) and 50 mg/dL in series [2] (Normal chow, Week 6).

With “ISIS 349517: 5-10-5 MOE gapmer CAGCACTTTAATGCCAGTGG (sugars from the 5' end e5 d10 e5, backbone and methylation of C not given here)”, in series [2] (Cholesterol chow, Week 0), the HDL cholesterol levels worked out at 49 mg/dL, the LDL cholesterol levels stood at 134 mg/dL, the Total cholesterol levels is 201 mg/dL and the Triglyceride levels turned out to be 84 mg/dL. In series [2] (Cholesterol chow, Week 3), this substance showed an HDL cholesterol levels of 78 mg/dL, an LDL cholesterol levels of 597 mg/dL, a Total cholesterol levels of 739 mg/dL and a Triglyceride levels of 107 mg/dL. In series [2] (Cholesterol chow, Week 6), the HDL cholesterol levels was determined as 122 mg/dL, the LDL cholesterol levels amounted to 486 mg/dL, the Total cholesterol levels was 695 mg/dL and the Triglyceride levels was found to be 102 mg/dL. In series [2] (Cholesterol chow, Week 6), this substance came in with a VLDL cholesterol levels of 88 mg/dL. In addition, in series [2] (Normal chow, Week 0), the HDL cholesterol levels is listed as 53 mg/dL, the LDL cholesterol levels was found to be 162 mg/dL, the Total cholesterol levels was found to be 237 mg/dL and the Triglyceride levels is 66 mg/dL. In series [2] (Normal chow, Week 3), this substance yielded an HDL cholesterol levels of 64 mg/dL, an LDL cholesterol levels of 146 mg/dL, a Total cholesterol levels of 238 mg/dL and a Triglyceride levels of 97 mg/dL. Also, in series [2] (Normal chow, Week 6), the HDL cholesterol levels is on record as 100 mg/dL, the LDL cholesterol levels is recorded as 220 mg/dL, the Total cholesterol levels worked out at 375 mg/dL and the Triglyceride levels was 91 mg/dL. This substance gave a VLDL cholesterol levels in series [2] (Normal chow, Week 6) of 55 mg/dL. Moreover, in series [1], the “FC % (free cholesterol component of HDL)” value is given as 2.1%, the “PL % (phospholipid component of HDL)” value is 15.6%, the “Pro % (protein component of HDL)” value is given as 31.3% and the “TG % (triglyceride component of HDL)” value amounted to 12.8%. In series [1], the “CE % (cholesteryl ester component of HDL)” value is reported as 38.1% and the “S/C Ratio” value was 0.96.
